{
  "source": "paper PMC9927515",
  "about": "“Discovery and Mechanism of Action of a Novel Antimicrobial Peptide from an Earthworm” (Microbiology Spectrum, 2023)",
  "key": {"[1]": {"tested_on": "sheep blood", "format": "cell-based", "experimental": "Sterile defibrinated sheep blood (Titan, Shanghai, China) was kept at 4°C and was used within 3 days after being received. Hemolysis assessment was conducted following the method of Liu et al. ([34]). The hemolysis rate was calculated using the following formula: hemolysis rate = [([…] sample - […] blank)/([…] 0.2% Triton X-100 - […] blank)] × 100."}, "[2]": {"test": "Sensitivity to pH (residual antibacterial rate)", "format": "physicochemical", "settings": "pH adjusted to 2-12, back to 7.4 after 1 h; residual antibacterial rate by MIC method, OD600; especially in E. coli; Fig. S2b", "experimental": "(§1) The AMP was treated for 1 h with a water bath heated at 50, 60, 70, 80, 90, or 100°C to evaluate temperature sensitivity, while the pH was adjusted to 2, 4, 6, 8, 10, and 12 and then back to 7.4 after 1 h to evaluate pH sensitivity. The changes in antibacterial activity were determined using the MIC method, as follows: antibacterial rate = [(OD600 positive control − OD600 sample)/(OD600 positive control − OD600 negative control)] × 100, where OD600 is the optical density at 600 nm.\n(§2) Table S1 Sequences of 21 synthetic peptides\n(§3) Table S3 Sequences and MICs of derivatives of EWAMP.15\n(§4) Table S4 Sequences and MICs of Alanine scanning derivatives\n(§5) Table S5 Sequences and MICs of Arg and Lys derivatives\n(§6) Table S6 Summary of membrane thickness\n(§7) Table S7 Primers used in RT-PCR\n(§8) Fig. S1 MICs of EWAMP.15 12 -24 derivatives that were replaced in different sites. In\n(§9) the X-axis, the number and the letter represent the replaced site and the amino acid residue.\n(§10) Fig. S2 Physical stability and in vitro toxicity of EWAMP-R. (a) Residual antibacterial\n(§11) rates after water heating for 1 h showing the temperature stability. (b) Residual antibacterial\n(§12) rates after acid or alkaline solution treatment showing the pH stability. (c) Hemolytic\n(§13) and negative controls. (d) Cell survival rate of LO2 after EWAMP-R treatment. All the cell\n(§14) survival rate was above 95%.\n(§15) Fig. S3 Root-mean-squared deviation (RMSD) and root-mean-squared fluctuation […]"}, "[3]": {"test": "Sensitivity to temperature (residual antibacterial rate)", "format": "physicochemical", "settings": "water bath 50-100°C for 1 h; residual antibacterial rate by MIC method, OD600; especially in E. coli; Fig. S2a", "experimental": "as §1, §2, §3, §4, §5, §6, §7, §8, §9, §10, §11, §12, §13, §14, §15"}},
  "note": "Where no end group is shown, it is not given here.",
  "data": [
    {"sequence": "RIWWSGGWRRWRW [EWAMP-R]", "values": [
      {"measurement": "hemolytic activity: absorbance in treatment groups versus negative controls", "setting": "[1]", "value": "not significantly different"},
      {"measurement": "stability of antibacterial activity under pH changes", "setting": "[2]", "value": "comparative stability"},
      {"measurement": "stability of antibacterial activity under temperature changes", "setting": "[3]", "value": "comparative stability"}
    ]}
  ]
}
